target: T1, catalytic domain of human JAK2 (Homo sapiens, UniProt O60674); assay: Inhibition of JAK2 activity (Z'-Lyte Kinase Assay kit-Tyr 6 Peptide); format: biochemical
T1 construct: the catalytic domain of human JAK2
Description: The inhibition of JAK2 kinase activity was determined in 384-well assay microplates using the Z′-Lyte® Kinase Assay kit-Tyr 6 Peptide kit, supplied by Invitrogen (Ref: PV4122), following the manufacturer's instructions.
In a final volume of 10 μL per well, 2.5 μL of the product to be tested dissolved in 4% DMSO (final concentration of the product to be tested, 0.1-10000 nM) was incubated with 0.5 μg/well of the catalytic domain of human JAK2, 2 μM of the substrate peptide Z′-Lyte® Tyr 6 and 16 μM of ATP; all components were dissolved in 50 mM pH 7.5 Hepes buffer, 10 mM Magnesium chloride (II), 1 mM EGTA and 0.01% Brij® 35. The reaction was started by the addition of said 16 μM ATP; after incubation for 1 hour at 25° C., 5 μL of A Z′-Lyte® Tyr 6 development reagent was added and the mixture was incubated for 1 hour at 25° C. Phosphorylation was then quantified in each well using a Safire2® fluorescence microplate reader from Tecan.

T1 sequence (O60674 849-1124 limits assumed): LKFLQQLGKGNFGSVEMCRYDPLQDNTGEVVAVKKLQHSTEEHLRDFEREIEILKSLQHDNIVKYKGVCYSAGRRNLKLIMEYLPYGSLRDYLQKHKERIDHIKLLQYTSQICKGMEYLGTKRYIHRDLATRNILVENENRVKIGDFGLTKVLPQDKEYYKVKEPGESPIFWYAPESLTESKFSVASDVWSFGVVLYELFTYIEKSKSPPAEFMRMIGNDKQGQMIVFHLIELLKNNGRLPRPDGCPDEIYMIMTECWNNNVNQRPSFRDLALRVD

| inhibition at 1 µM | SMILES |
| --- | --- |
| > 50% | O=c1[nH]c2cnc(-c3cnn4ccccc34)nc2n1C1CCOCC1 [Example 3, 2-(Pyrazolo[1,5-a]pyridin-3-yl)-9-(tetrahydro-2H-pyran-4-yl)-7H-purin-8(9H)-one] |
| > 50% | CC(C)(C)OC(=O)N1CCC[C@H](n2c(=O)[nH]c3cnc(-c4cnn5ccccc45)nc32)C1 [Example 3b, (S)-tert-butyl 3-(8-oxo-2-(pyrazolo[1,5-a]pyridin3-yl)-7H-purin-9(8H)-yl)piperidine-1-carboxylate] |
| > 50% | O=c1[nH]c2cnc(-c3cnn4ccccc34)nc2n1C1CCOc2c(F)cccc21 (stereo not shown) [Example 3d, 9-(8-fluorochroman-4-yl)-2-(pyrazolo[1,5-a]pyridin-3-yl)-7H-purin-8(9H)-one] |
| > 50% | COC(=O)[C@H](C)n1c(=O)[nH]c2cnc(-c3cnn4ccccc34)nc21 [Example 3e, methyl (2S)-2-(8-oxo-2-(pyrazolo[1,5-a]pyridin-3-yl)-7,8-dihydro-9H-purin-9-yl)propanoate] |
| > 50% | Cn1c(=O)n(C2CCOc3c(F)cccc32)c2nc(-c3cnn4ccccc34)ncc21 (stereo not shown) [Example 4c, 9-(8-fluorochroman-4-yl)-7-methyl-2-(pyrazolo[1,5-a]pyridin-3-yl)-7H-purin-8(9H)-one] |
| > 50% | Cn1c(=O)n([C@H]2CCCN(C(=O)OC(C)(C)C)C2)c2nc(-c3cnn4ccccc34)ncc21 [Example 5, (S)-tert-Butyl 3-(7-methyl-8-oxo-2-(pyrazolo[1,5-a]pyridine-3-yl)-7H-purin-9(8H)-yl)piperidine-1-carboxylate] |
| > 50% | Cn1c(=O)n(C2CCOCC2)c2nc(-c3cnn4ccccc34)ncc21 [Example 5a, 7-methyl-2-(pyrazolo[1,5-a]pyridin-3-yl)-9-(tetrahydro-2H-pyran-4-yl)-7H-purin-8(9H)-one] |
| > 50% | Cn1c(=O)n(C2CCOCC2)c2nc(-c3cnn4ccc(C#N)cc34)ccc21 [Example 5b, 3-(1-methyl-2-oxo-3-(tetrahydro-2H-pyran-4-yl)-2,3-dihydro-1H-imidazo[4,5-b]pyridin-5-yl)pyrazolo[1,5-a]pyridine-5-carbonitrile] |
| > 50% | Cn1c(=O)n(C2CCC(F)(F)CC2)c2nc(-c3cnn4ccc(C#N)cc34)ncc21 [Example 5e, 3-(9-(4,4-difluorocyclohexyl)-7-methyl-8-oxo-8,9-dihydro-7H-purin-2-yl)pyrazolo[1,5-a]pyridine-5-carbonitrile] |
| > 50% | Cn1c(=O)n(C2CCS(=O)(=O)C2)c2nc(-c3cnn4ccc(C#N)cc34)ncc21 (stereo not shown) [Example 5f, 3-(9-(1,1-dioxotetrahydrothien-3-yl)-8,9-dihydro-7-methyl-8-oxopurin-2-yl)pyrazolo[1,5-a]pyridine-5-carbonitrile] |
| > 50% | Cn1c(=O)n(Cc2ccccc2F)c2nc(-c3cnn4ccc(C#N)cc34)ncc21 [Example 5h, 3-(9-(2-fluorobenzyl)-7-methyl-8-oxo-8,9-dihydro-7H-purin-2-yl)pyrazolo[1,5-a]pyridine-5-carbonitrile] |
| > 50% | CC(=O)N1CCC(n2c(=O)n(C)c3cnc(-c4cnn5ccc(C(F)(F)F)cc45)nc32)CC1 [Example 5i, 9-(1-acetylpiperidin-4-yl)-7-methyl-2-(5-(trifluoromethyl)pyrazolo[1,5-a]pyridin-3-yl)-7H-purin-8(9H)-one] |
| > 50% | N#CCC(=O)N1CCC[C@H](n2c(=O)[nH]c3ccc(-c4cnn5ccccc45)nc32)C1 [Example 7p, (S)-3-oxo-3-(3-(2-oxo-5-(pyrazolo[1,5-a]pyridin-3-yl)-1H-imidazo[4,5-b]pyridin-3(2H)-yl)piperidin-1-yl)propanenitrile] |
| > 50% | CC(C)C(=O)N1CCC[C@H](n2c(=O)[nH]c3ccc(-c4cnn5ccccc45)nc32)C1 [Example 8d, (S)-3-(1-isobutyrylpiperidin-3-yl)-5-(pyrazolo[1,5-a]pyridin-3-yl)-1H-imidazo[4,5-b]pyridin-2(3H)-one] |
| > 50% | CS(=O)(=O)N1CCC[C@H](n2c(=O)[nH]c3cnc(-c4cnn5ccccc45)nc32)C1 [Example 9a, (S)-9-(1-(methylsulfonyl)piperidin-3-yl)-2-(pyrazolo[1,5-a]pyridin-3-yl)-7H-purin-8(9H)-one] |
| > 50% | CCCS(=O)(=O)N1CCC[C@H](n2c(=O)[nH]c3cnc(-c4cnn5ccc(C#N)cc45)nc32)C1 [Example 9b, (S)-3-(8-oxo-9-(1-(propylsulfonyl)piperidin-3-yl)-8,9-dihydro-7H-purin-2-yl)pyrazolo[1,5-a]pyridine-5-carbonitrile] |

| inhibition at 1 µM | SMILES |
| --- | --- |
| > 50% | N#Cc1ccn2ncc(-c3ncc4[nH]c(=O)n([C@H]5CCCN(S(=O)(=O)CC(F)(F)F)C5)c4n3)c2c1 [Example 9c, (S)-3-(8-oxo-9-(1-(2,2,2-trifluoroethylsulfonyl)piperidin-3-yl)-8,9-dihydro-7H-purin-2-yl)pyrazolo[1,5-a]pyridine-5-carbonitrile] |
| > 50% | Cn1c(=O)n([C@H]2CCCN(S(C)(=O)=O)C2)c2nc(-c3cnn4ccccc34)ccc21 [Example 9f, (S)-1-methyl-3-(1-(methylsulfonyl)piperidin-3-yl)-5-(pyrazolo[1,5-a]pyridin-3-yl)-1H-imidazo[4,5-b]pyridin-2(3H)-one] |
| > 50% | Cc1ccn2ncc(-c3ncc4[nH]c(=O)n([C@H]5CCCN(S(C)(=O)=O)C5)c4n3)c2c1 [Example 9g, (S)-2-(5-methylpyrazolo[1,5-a]pyridin-3-yl)-9-(1-(methylsulfonyl)piperidin-3-yl)-7H-purin-8(9H)-one] |
| > 50% | N#Cc1ccn2ncc(-c3ncc4[nH]c(=O)n([C@H]5CCCN(C(=O)CO)C5)c4n3)c2c1 [Example 10a] |
| > 50% | CC(C)(O)C(=O)N1CCC[C@H](n2c(=O)[nH]c3cnc(-c4cnn5ccc(C#N)cc45)nc32)C1 [Example 10b] |
| > 50% | CCC(CC)C(=O)N1CCC[C@H](n2c(=O)[nH]c3cnc(-c4cnn5ccc(C#N)cc45)nc32)C1 [Example 10e] |
| > 50% | N#Cc1ccn2ncc(-c3ncc4[nH]c(=O)n([C@H]5CCCN(C(=O)CC(F)(F)F)C5)c4n3)c2c1 [Example 10h] |
| > 50% | CCC(=O)N1CCC[C@H](n2c(=O)[nH]c3cnc(-c4cnn5ccc(C)cc45)nc32)C1 [Example 10i] |
| > 50% | COCC(=O)N1CCC[C@H](n2c(=O)n(C(=O)COC)c3cnc(-c4cnn5ccc(C)cc45)nc32)C1 [Example 10k] |
| > 50% | CC(=O)N1CCC[C@H](n2c(=O)[nH]c3cnc(-c4cnn5ccc(C)cc45)nc32)C1 [Example 10l] |
| > 50% | Cc1ccn2ncc(-c3ncc4[nH]c(=O)n([C@H]5CCCN(C(=O)CO)C5)c4n3)c2c1 [Example 10m] |
| > 50% | N#Cc1ccn2ncc(-c3ncc4[nH]c(=O)n([C@H]5CCCN(C(=O)C6CC6)C5)c4n3)c2c1 [Example 10n] |
| > 50% | CCNC(=O)[C@@H](C)n1c(=O)[nH]c2cnc(-c3cnn4ccc(C#N)cc34)nc21 [Example 15f] |
| > 50% | C[C@H](C(=O)N(C)C)n1c(=O)[nH]c2cnc(-c3cnn4ccc(C#N)cc34)nc21 [Example 15h] |
| > 50% | C[C@@H](C(=O)NCC(F)(F)F)n1c(=O)[nH]c2cnc(-c3cnn4ccc(C#N)cc34)nc21 [Example 15i] |

Reference: patent US8946257B2, “N-containing heteroaryl derivatives as JAK3 kinase inhibitors” (Vectura Limited, priority 2009, dated 2015)
